From patent US20240415819A1, “MACROCYCLIC COMPOUNDS AS PROTEASOME SUBUNIT BETA TYPE-5 INHIBITORS” (Lead Discovery Center GmbH, priority 2021, published 2024)

How the values were obtained:
[1] = test system: B-cells isolated from PBMC's; experiment: Chymotrypsin-like ProteasomeGlo assay in B-cells isolated from PBMCs; assay type: cell-based, human; conditions: Homo sapiens; B-cells isolated from PBMC's; read-out: Pglo B-Cell
How it was run: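 Human B-cells were negatively isolated from buffy-coat PBMCs by density gradient, RBC lysis and Miltenyi magnetic separation. Cells were plated and compounds added by acoustic transfer after 1:100 dilution, with DMSO controls and medium-only wells. Chymotrypsin-like proteasome activity was read by luminescent ProteasomeGlo to derive IC50.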

[2] = test system: PBMC; experiment: PBMC IL 17 stim. (Table 4, method not given); assay type: cell-based
[3] = test system: B cell; experiment: B cell diff. (Table 4, method not given); assay type: cell-based; conditions: B-cell
[4] = test system: Karpas cells; experiment: Glo assay of Karpas cells (Table 3; ProteasomeGlo plating scheme); assay type: cell-based; conditions: read-out: Pglo Karpas
How it was run: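 After acoustic compound transfer, plates incubate 105 min (37° C., 5% CO2). Proteasome-Glo reagent containing Suc-LLVY-Glo substrate is added, plates are shaken, then luminescence is measured after 10-15 min to derive IC50 [nM]. Staurosporine and DMSO serve as controls.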

| SMILES | IC50 [1] [nM] | IC50 [2] [nM] | IC50 [3] [nM] | IC50 [4] [nM] |
| --- | --- | --- | --- | --- |
| Cc1ccc2cc1CNC(=O)[C@H](CCc1ccccc1)NC(=O)CCCCC(=O)N1CCCC(CCO2)C1 (stereo partly drawn) [Compound 16, (9S)-5^4-methyl-9-phenethyl-4-oxa-7,10-diaza-1(3,1)-piperidina-5(1,3)-benzenacyclohexadecaphane-8,11,16-trione] | < 100 | < 100 | < 100 |  |
| Cc1ccc2cc1CNC(=O)[C@H](CCc1ccccc1)NC(=O)CCC(=O)N1CCCC(CCO2)C1 (stereo partly drawn) [Compound 13, (9S)-5^4-methyl-9-phenethyl-4-oxa-7,10-diaza-1(3,1)-piperidina-5(1,3)-benzenacyclotetradecaphane-8,11,14-trione] | < 100 |  | 100 to 500 |  |
| Cc1ccc2cc1CNC(=O)[C@H](CCc1ccccc1)NC(=O)[C@@H](Nc1nc3ccccc3[nH]1)CC(=O)N1CCCC(CCO2)C1 (stereo partly drawn) [Compound 45, (9S,12S)-12-((1H-benzo[d]imidazol-2-yl)amino)-5^4-methyl-9-phenethyl-4-oxa-7,10-diaza-1(3,1)-piperidina-5(1,3)-benzenacyclotetradecaphane-8,11,14-trione] | 100 to 500 |  | < 100 |  |
| Cc1ccc2cc1CNC(=O)[C@H](CCc1ccccc1)NC(=O)[C@@H](N1C(=O)CCC1=O)CC(=O)N1CCCC(CCO2)C1 (stereo partly drawn) [Compound 43, (9S,12S)-12-(2,5-dioxopyrrolidin-1-yl)-5^4-methyl-9-phenethyl-4-oxa-7,10-diaza-1(3,1)-piperidina-5(1,3)-benzenacyclotetradecaphane-8,11,14-trione] | < 100 |  | < 100 |  |
| Cc1ccc2cc1CNC(=O)[C@H](CCc1ccccc1)NC(=O)[C@@H](Nc1ccccn1)CC(=O)N1CCCC(CCO2)C1 (stereo partly drawn) [Compound 36, (9S,12S)-5^4-methyl-9-phenethyl-12-(pyridin-2-ylamino)-4-oxa-7,10-diaza-1(3,1)-piperidina-5(1,3)-benzenacyclotetradecaphane-8,11,14-trione] | 100 to 500 |  | < 100 |  |
| Cc1ccc2cc1CNC(=O)[C@H](CCc1ccccc1)NC(=O)[C@@H](NC(=O)[C@@H](C)c1ccccc1)CC(=O)N1CCCC(CCO2)C1 (stereo partly drawn) [Compound 81, (2S)-N-((9S,12S)-5^4-methyl-8,11,14-trioxo-9-phenethyl-4-oxa-7,10-diaza-1(3,1)-piperidina-5(1,3)-benzenacyclotetradecaphane-12-yl)-2-phenylpropanamide] | < 100 |  |  | < 100 |
| Cc1ccc2cc1CNC(=O)[C@H](Cc1c[nH]c3ccccc13)NC(=O)CCC(=O)N1CCCC(CCO2)C1 (stereo partly drawn) [Compound 77, (9S)-9-((1H-indol-3-yl)methyl)-5^4-methyl-4-oxa-7,10-diaza-1(3,1)-piperidina-5(1,3)-benzenacyclotetradecaphane-8,11,14-trione] | 100 to 500 |  |  | 100 to 500 |
| Cc1ccc2cc1CNC(=O)[C@H](CCc1ccccc1)NC(=O)[C@@H](NS(C)(=O)=O)CC(=O)N1CCCC(CCO2)C1 (stereo partly drawn) [Compound 37, N-((9S,12S)-5^4-methyl-8,11,14-trioxo-9-phenethyl-4-oxa-7,10-diaza-1(3,1)-piperidina-5(1,3)-benzenacyclotetradecaphane-12-yl)methanesulfonamide] | < 100 |  | < 100 |  |
| Cc1ccc2cc1CNC(=O)[C@H](CCc1ccccc1)NC(=O)[C@@H](NC(=O)c1n[nH]c3ccccc13)CC(=O)N1CCCC(CCO2)C1 (stereo partly drawn) [Compound 60, N-((9S,12S)-5^4-methyl-8,11,14-trioxo-9-phenethyl-4-oxa-7,10-diaza-1(3,1)-piperidina-5(1,3)-benzenacyclotetradecaphane-12-yl)-1H-indazole-3-carboxamide] | 100 to 500 |  |  | 100 to 500 |
| COc1ccc(CC(=O)N[C@H]2CC(=O)N3CCCC(CCOc4ccc(C)c(c4)CNC(=O)[C@H](CCc4ccccc4)NC2=O)C3)cc1OC (stereo partly drawn) [Compound 63, 2-(3,4-dimethoxyphenyl)-N-((9S,12S)-5^4-methyl-8,11,14-trioxo-9-phenethyl-4-oxa-7,10-diaza-1(3,1)-piperidina-5(1,3)-benzenacyclotetradecaphane-12-yl)acetamide] | < 100 | < 100 |  | < 100 |
| Cc1ccc2cc1CNC(=O)[C@H](CCc1ccccc1)NC(=O)[C@@H](NC(=O)C1CCCc3ccccc31)CC(=O)N1CCCC(CCO2)C1 (stereo partly drawn) [Compound 82, N-((9S,12S)-5^4-methyl-8,11,14-trioxo-9-phenethyl-4-oxa-7,10-diaza-1(3,1)-piperidina-5(1,3)-benzenacyclotetradecaphane-12-yl)-1,2,3,4-tetrahydronaphthalene-1-carboxamide] | < 100 |  |  | < 100 |
| Cc1ccc2cc1CNC(=O)[C@H](CCc1ccccc1)NC(=O)[C@@H](N)CC(=O)N1CCCC(CCO2)C1 (stereo partly drawn) [Compound 8, (9S,12S)-12-amino-5^4-methyl-9-phenethyl-4-oxa-7,10-diaza-1(3,1)-piperidina-5(1,3)-benzenacyclotetradecaphane-8,11,14-trione] | < 100 |  |  | < 100 |
| Cc1ccc2cc1CNC(=O)[C@H](CCc1ccccc1)NC(=O)[C@@H](NC(=O)c1ccncc1)CC(=O)N1CCCC(CCO2)C1 (stereo partly drawn) [Compound 42, N-((9S,12S)-5^4-methyl-8,11,14-trioxo-9-phenethyl-4-oxa-7,10-diaza-1(3,1)-piperidina-5(1,3)-benzenacyclotetradecaphane-12-yl)isonicotinamide] | < 100 |  | < 100 |  |
| Cc1ccc2cc1CNC(=O)[C@H](C)NC(=O)CCC(=O)N1CCCC(CCO2)C1 (stereo partly drawn) [Compound 78, (9S)-5^4,9-dimethyl-4-oxa-7,10-diaza-1(3,1)-piperidina-5(1,3)-benzenacyclotetradecaphane-8,11,14-trione] | 100 to 500 |  |  | 100 to 500 |
